Experimental data from patent publication US20230414735A1, “NEOANTIGENS AND METHODS OF THEIR USE” (priority 2016, published 2023).
Where no end group is shown, it is not given here.

System: HLA Class I molecules
Assay: HLA class I binding stability assay (pMHC-I complex dissociation, 125I-labeled β2m, scintillation counts)
Set-up: species or system human
[1] = allele A02.01, pMHC-I dissociation at 37° C.

With `CC(C)C[C@H](NC(=O)[C@@H]1CCCN1C(=O)[C@H](CS)NC(=O)[C@H](CC(C)C)NC(=O)[C@H](Cc1c[nH]cn1)NC(=O)[C@H](CC(N)=O)NC(=O)CNC(=O)[C@H](CC(C)C)NC(=O)[C@@H](N)CO)C(=O)O` the “Stability (T1/2 (h))” value (allele A02.01, 37° C.) was 3.5 h and the “Stability (T1/2 (h))” value (allele B08.01, 37° C.) was 0.5 h.

With `CC[C@H](C)[C@H](NC(=O)[C@H](Cc1ccc(O)cc1)NC(=O)[C@H](CC(C)C)NC(=O)[C@@H](N)CC(C)C)C(=O)N[C@H](C(=O)N[C@@H](C)C(=O)N[C@@H](Cc1ccccc1)C(=O)N[C@@H](Cc1ccccc1)C(=O)N[C@@H](CC(C)C)C(=O)O)[C@@H](C)O` the “Stability (T1/2 (h))” value (allele A02.01, 37° C.) was 17 h.

With `CSCC[C@H](NC(=O)[C@H](CC(C)C)NC(=O)[C@H](CCC(N)=O)NC(=O)[C@@H](N)CCSC)C(=O)N1CCC[C@H]1C(=O)N[C@@H](Cc1ccccc1)C(=O)NCC(=O)N[C@@H](CS)C(=O)N[C@@H](CC(C)C)C(=O)O` the “Stability (T1/2 (h))” value [1] was 0.4 h.

`CC(C)C[C@H](N)C(=O)N1CCC[C@H]1C(=O)N[C@@H](CCCNC(=N)N)C(=O)N[C@@H](CCCCN)C(=O)N1CCC[C@H]1C(=O)N[C@H](C(=O)N[C@@H](CCCNC(=N)N)C(=O)N[C@@H](C)C(=O)N[C@@H](C)C(=O)O)[C@@H](C)O` was tested, and the “Stability (T1/2 (h))” value (allele B07.02, 37° C.) was 5.5 h.

For `CC(C)C[C@H](NC(=O)[C@H](CO)NC(=O)[C@H](CS)NC(=O)[C@H](CCC(=O)O)NC(=O)[C@H](Cc1c[nH]c2ccccc12)NC(=O)[C@H](CC(C)C)NC(=O)[C@H](C)NC(=O)[C@H](CC(C)C)NC(=O)[C@@H](N)CC(C)C)C(=O)O`, the “Stability (T1/2 (h))” value (allele A02.01, 37° C.) was 4 h.

`CC[C@H](C)[C@H](NC(=O)[C@H](CC(C)C)NC(=O)[C@@H]1CCCN1C(=O)[C@H](Cc1ccccc1)NC(=O)[C@H](CC(C)C)NC(=O)[C@@H](N)CCC(=O)O)C(=O)N[C@@H](Cc1ccccc1)C(=O)N1CCC[C@H]1C(=O)N[C@@H](C)C(=O)O` was tested, and the “Stability (T1/2 (h))” value [1] was 5.1 h.

KVLQMDFLV was tested, and the “Stability (T1/2 (h))” value [1] was 6.4 h.

With IIIEYCFYG the “Stability (T1/2 (h))” value (allele A02.01, 37° C.) was 1.2 h.

With `CC[C@H](C)[C@H](NC(=O)[C@H](CC(C)C)NC(=O)[C@@H](N)CCC(N)=O)C(=O)N[C@@H](CCSC)C(=O)N[C@@H](CCC(N)=O)C(=O)N[C@@H](CC(C)C)C(=O)N[C@@H](CCSC)C(=O)N1CCC[C@H]1C(=O)N[C@@H](Cc1ccccc1)C(=O)O` the “Stability (T1/2 (h))” value [1] was 0.3 h.

`CC[C@H](C)[C@H](NC(=O)[C@H](CO)NC(=O)[C@H](Cc1c[nH]c2ccccc12)NC(=O)[C@H](Cc1c[nH]cn1)NC(=O)[C@H](C)NC(=O)[C@@H]1CCCN1C(=O)[C@H](CCSC)NC(=O)[C@H](CC(C)C)NC(=O)[C@H](CO)NC(=O)[C@@H](N)CC(C)C)C(=O)O` was tested, and the “Stability (T1/2 (h))” value (allele A02.01, 37° C.) was 0.4 h.

In the case of `CC[C@H](C)[C@H](NC(=O)[C@@H](NC(=O)[C@H](CC(C)C)NC(=O)[C@@H](NC(=O)[C@@H]1CCCN1C(=O)[C@H](CCCNC(=N)N)NC(=O)[C@H](CCCNC(=N)N)NC(=O)[C@H](CC(N)=O)NC(=O)[C@H](CCSC)NC(=O)[C@@H](N)CO)[C@@H](C)CC)[C@@H](C)O)C(=O)O`, the “Stability (T1/2 (h))” value (allele A02.01, 37° C.) is reported as 0.3 h.

For `CSCC[C@H](NC(=O)[C@H](CC(C)C)NC(=O)[C@@H](N)CCCCN)C(=O)N[C@@H](CC(C)C)C(=O)N[C@@H](CC(C)C)C(=O)N[C@@H](CCCNC(=N)N)C(=O)N[C@@H](CC(C)C)C(=O)N[C@@H](CC(N)=O)C(=O)N[C@@H](CC(C)C)C(=O)O`, the “Stability (T1/2 (h))” value (allele A02.01, 37° C.) was 16.9 h and the “Stability (T1/2 (h))” value (allele B07.02, 37° C.) was 1.5 h.

With KVSRENTSPK the “Stability (T1/2 (h))” value (allele A03.01, 37° C.) was 13.5 h.

In the case of `CSCC[C@H](NC(=O)[C@H](CC(C)C)NC(=O)[C@H](CCC(N)=O)NC(=O)[C@@H](N)CCSC)C(=O)N1CCC[C@H]1C(=O)N[C@@H](Cc1ccccc1)C(=O)NCC(=O)N[C@@H](CS)C(=O)N[C@@H](CC(C)C)C(=O)N[C@@H](CC(C)C)C(=O)O`, the “Stability (T1/2 (h))” value [1] is reported as 0.4 h.

In the case of `CSCC[C@H](NC(=O)[C@@H](NC(=O)[C@H](Cc1ccc(O)cc1)NC(=O)[C@H](C)NC(=O)[C@H](CCSC)NC(=O)[C@@H](NC(=O)[C@@H](N)Cc1ccc(O)cc1)C(C)C)C(C)C)C(=O)N[C@@H](C)C(=O)NCC(=O)O`, the “Stability (T1/2 (h))” value (allele A02.01, 37° C.) is reported as 2.5 h and the “Stability (T1/2 (h))” value (allele B08.01, 37° C.) is reported as 1.2 h.

`CC[C@H](C)[C@H](NC(=O)[C@H](Cc1ccccc1)NC(=O)[C@H](CCCNC(=N)N)NC(=O)[C@@H]1CCCN1C(=O)[C@H](CC(C)C)NC(=O)[C@@H](N)CO)C(=O)N[C@@H](CC(C)C)C(=O)N[C@@H](CCSC)C(=O)N[C@@H](CCC(=O)O)C(=O)N[C@@H](CC(C)C)C(=O)O` was tested, and the “Stability (T1/2 (h))” value [1] was 0.5 h and the “Stability (T1/2 (h))” value (allele B07.02, pMHC-I dissociation at 37° C.) was 0.4 h.

For `CC(C)C[C@H](NC(=O)[C@H](Cc1c[nH]cn1)NC(=O)[C@H](CCC(=O)O)NC(=O)[C@H](Cc1ccccc1)NC(=O)[C@H](CCCCN)NC(=O)[C@H](CC(=O)O)NC(=O)[C@H](CCC(N)=O)NC(=O)[C@H](CC(C)C)NC(=O)[C@@H](N)CCC(N)=O)C(=O)O`, the “Stability (T1/2 (h))” value [1] was 0.6 h.

In the case of `CSCC[C@H](N)C(=O)N[C@@H](C)C(=O)N[C@@H](CC(C)C)C(=O)N[C@@H](CC(N)=O)C(=O)N[C@@H](CO)C(=O)N[C@@H](CCC(=O)O)C(=O)N[C@@H](C)C(=O)N[C@@H](CC(C)C)C(=O)N[C@@H](CO)C(=O)N[C@H](C(=O)O)C(C)C`, the “Stability (T1/2 (h))” value (allele A02.01, 37° C.) is reported as 0.7 h.

With `CC[C@H](C)[C@H](NC(=O)[C@H](CO)NC(=O)[C@H](Cc1c[nH]c2ccccc12)NC(=O)[C@H](Cc1c[nH]cn1)NC(=O)[C@H](C)NC(=O)[C@@H]1CCCN1C(=O)[C@H](CCSC)NC(=O)[C@H](CC(C)C)NC(=O)[C@@H](N)CO)C(=O)O` the “Stability (T1/2 (h))” value (allele A02.01, 37° C.) was 5 h.

For `CC(C)C[C@H](NC(=O)[C@H](C)NC(=O)[C@@H](NC(=O)[C@H](CCCNC(=N)N)NC(=O)[C@H](CO)NC(=O)[C@H](CC(=O)O)NC(=O)[C@H](CO)NC(=O)[C@H](CC(C)C)NC(=O)[C@@H](N)CCCCN)[C@@H](C)O)C(=O)O` [KLSDSRTAL], the “Stability (T1/2 (h))” value (allele A02.01, 37° C.) was 2.8 h and the “Stability (T1/2 (h))” value (allele B07.02, 37° C.) was 6.8 h.

For `CSCC[C@H](NC(=O)[C@H](Cc1c[nH]c2ccccc12)NC(=O)[C@H](Cc1c[nH]cn1)NC(=O)[C@H](CC(N)=O)NC(=O)[C@H](CCCNC(=N)N)NC(=O)[C@H](CCCNC(=N)N)NC(=O)[C@H](CCC(N)=O)NC(=O)[C@H](CO)NC(=O)[C@@H]1CCCN1C(=O)[C@@H](N)CC(C)C)C(=O)O`, the “Stability (T1/2 (h))” value (allele B07.02, 37° C.) was 6.5 h and the “Stability (T1/2 (h))” value (allele B08.01, 37° C.) was 0.7 h.

With `CC[C@H](C)[C@H](NC(=O)[C@@H](NC(=O)[C@H](CC(C)C)NC(=O)[C@@H](NC(=O)[C@@H]1CCCN1C(=O)[C@H](CCCNC(=N)N)NC(=O)[C@H](CCC(N)=O)NC(=O)[C@H](CC(N)=O)NC(=O)[C@H](CCSC)NC(=O)CN)[C@@H](C)CC)[C@@H](C)O)C(=O)O` the “Stability (T1/2 (h))” value (allele A02.01, 37° C.) was 0.4 h.

`CC[C@H](C)[C@H](N)C(=O)N[C@@H](CCC(N)=O)C(=O)N[C@@H](CC(C)C)C(=O)N[C@@H](CCC(N)=O)C(=O)N[C@@H](CC(=O)O)C(=O)N[C@@H](CCCCN)C(=O)N[C@@H](Cc1ccccc1)C(=O)N[C@@H](CCC(=O)O)C(=O)N[C@@H](Cc1c[nH]cn1)C(=O)N[C@@H](CC(C)C)C(=O)O` was tested, and the “Stability (T1/2 (h))” value [1] was 0.2 h.

For `C[C@H](NC(=O)[C@H](CO)NC(=O)[C@H](C)NC(=O)[C@@H]1CCCN1C(=O)[C@H](C)NC(=O)[C@@H]1CCCN1C(=O)[C@H](CCCNC(=N)N)NC(=O)[C@@H]1CCCN1C(=O)[C@@H](N)Cc1c[nH]cn1)C(=O)O`, the “Stability (T1/2 (h))” value (allele B07.02, 37° C.) was 4.9 h.

For `CC(C)C[C@H](NC(=O)[C@H](CO)NC(=O)[C@H](CC(N)=O)NC(=O)[C@H](CS)NC(=O)[C@H](CCC(=O)O)NC(=O)[C@H](Cc1c[nH]cn1)NC(=O)[C@H](CC(C)C)NC(=O)[C@@H](NC(=O)[C@@H](N)CCC(N)=O)C(C)C)C(=O)O`, the “Stability (T1/2 (h))” value (allele A02.01, 37° C.) was 0.5 h.

`CC(C)C[C@H](NC(=O)[C@@H](N)CCCNC(=N)N)C(=O)N[C@@H](CO)C(=O)N[C@@H](CO)C(=O)N[C@@H](CS)C(=O)N[C@H](C(=O)N1CCC[C@H]1C(=O)N[C@H](C(=O)N[C@@H](C)C(=O)O)C(C)C)C(C)C` was tested, and the “Stability (T1/2 (h))” value (allele A02.01, 37° C.) was 18.7 h.

For LPRKPTRAAT, the “Stability (T1/2 (h))” value (allele B07.02, 37° C.) was 3.7 h.

In the case of `CC[C@H](C)[C@H](NC(=O)[C@@H](NC(=O)[C@H](CC(C)C)NC(=O)[C@@H](NC(=O)[C@@H]1CCCN1C(=O)[C@H](CCCNC(=N)N)NC(=O)[C@H](Cc1c[nH]c2ccccc12)NC(=O)[C@H](CC(N)=O)NC(=O)[C@H](CCSC)NC(=O)CN)[C@@H](C)CC)[C@@H](C)O)C(=O)O`, the “Stability (T1/2 (h))” value (allele A02.01, 37° C.) is reported as 0.5 h.

In the case of `CSCC[C@H](NC(=O)[C@H](CC(C)C)NC(=O)[C@H](CO)NC(=O)[C@H](CC(C)C)NC(=O)[C@@H]1CCCN1C(=O)[C@H](CCC(N)=O)NC(=O)[C@H](CCSC)NC(=O)[C@H](CCC(N)=O)NC(=O)[C@@H](N)Cc1ccccc1)C(=O)O`, the “Stability (T1/2 (h))” value (allele A02.01, 37° C.) is reported as 0.3 h.

In the case of `CSCC[C@H](NC(=O)[C@@H](NC(=O)[C@H](Cc1ccc(O)cc1)NC(=O)[C@H](C)NC(=O)[C@H](CCSC)NC(=O)[C@@H](NC(=O)[C@@H](N)Cc1ccc(O)cc1)C(C)C)C(C)C)C(=O)N[C@@H](C)C(=O)NCC(=O)N[C@H](C(=O)O)C(C)C`, the “Stability (T1/2 (h))” value (allele A02.01, 37° C.) is reported as 20.9 h.

With `CC(C)[C@H](NC(=O)[C@H](CO)NC(=O)[C@H](Cc1ccccc1)NC(=O)[C@H](Cc1ccccc1)NC(=O)[C@H](Cc1ccccc1)NC(=O)[C@H](Cc1ccccc1)NC(=O)[C@H](CS)NC(=O)[C@@H](NC(=O)[C@@H](N)CO)C(C)C)C(=O)O` the “Stability (T1/2 (h))” value [1] was 9.4 h.

In the case of `CC[C@H](C)[C@H](NC(=O)[C@H](CCC(N)=O)NC(=O)[C@@H](N)CO)C(=O)N[C@@H](CCSC)C(=O)N[C@@H](CO)C(=O)N[C@@H](CC(C)C)C(=O)N[C@@H](Cc1c[nH]c2ccccc12)C(=O)NCC(=O)N[C@@H](CC(C)C)C(=O)O`, the “Stability (T1/2 (h))” value (allele A02.01, 37° C.) is reported as 1 h.

For `CC[C@H](C)[C@H](N)C(=O)N[C@@H](CCSC)C(=O)N[C@@H](CCC(N)=O)C(=O)N[C@@H](CC(C)C)C(=O)N[C@@H](CCSC)C(=O)N1CCC[C@H]1C(=O)N[C@@H](Cc1ccccc1)C(=O)NCC(=O)N[C@@H](CS)C(=O)N[C@@H](CC(C)C)C(=O)O`, the “Stability (T1/2 (h))” value [1] was 0.5 h.

With KPTRAATVSV the “Stability (T1/2 (h))” value (allele B07.02, 37° C.) was 3 h.
